Patent US20060264508A1, “Modulation of ocular growth and myopia by gaba drugs” (priority 2001, published 2006)
Where “and” joins values, the source holds several entries; their conditions need not be identical. Identical values can stand only once. Entries after “also recorded” stand apart in the source; their conditions may differ. Counter-ions that a name gives are not always drawn. Like-named read-outs stand apart in the source and are kept apart here.

Columns and labels:
[1] = test system: goggled eyes (form-deprivation myopia); details: daily intravitreal injection, result in words
non-goggled eyes = format: in vivo, White leghorn chicks; details: for Equatorial diameter (calipers) / axial length calipers / axial length ultrasound / vitreous chamber depth (ultrasound) / refraction: daily intravitreal dose(s) at which drug-treated differ from contralateral vehicle-treated eyes (P<0.05, Tukey test); for effect on lens thickness / anterior chamber depth, drug-treated vs vehicle-treated eyes: primary outcome comparison
From the text: Chicks were anesthetized with inhalation ether for all goggle applications and drug injections. The experimental eye was the right eye in half of the chicks, and the left eye in the other half of the chicks, assigned in an alternating order within each group. Form-deprivation myopia was induced by attaching a unilateral translucent white plastic goggle to the periorbital feathers with cyanoacrylate glue. All research conformed with the ARVO Resolution on the Use of Animals in Ophthalmic and Vision Research.
All goggle applications and/or drug injections began when the chicks reached one week of age. At about four hours into the light phase, a 10 μl intravitreal injection of either drug+vehicle or vehicle alone was given under aseptic conditions to the goggled or experimental non-goggled eye, with all contralateral eyes concurrently receiving vehicle injections.
On this day, the animals received no intraocular injections. […] While still under general anesthesia, the chicks were decapitated; and the axial and equatorial dimensions of enucleated eyes were measured with digital calipers. As the coronal profile of the chick eye is elliptical, the equatorial dimension was reported as the mean of the shortest and longest equatorial dimensions.
For goggled chicks, the primary measure of outcome was the drug effect on the ocular response to wearing a goggle, and comparisons of individual doses to each other and to vehicle-treated controls for each drug. Differences in refraction and each size measurement between goggled and contralateral eyes were assessed by one-way analysis of variance (ANOVA). For non-goggled chicks, the primary outcome measure was comparison of drug-treated to contralateral vehicle-treated eyes using a two-way repeated measures ANOVA (one factor replication, using eye as the replicated factor) for refractions and measurements.
The statistical outcomes with the two-way ANOVA are mainly described by the drug-treated to contralateral eye comparison. […] When the ANOVA assumptions of normality or equal variance were not met, the corresponding ANOVA on ranks was used. […] The Figures show the P values when the overall ANOVA reached a significance level of at least P<0.05, and the post-hoc tests for within group comparisons appear in the Tables that follow.

[2] = non-goggled chicks receiving the 10 μg dose, mean±S.E.M.
[3] = non-goggled chicks, 10 μg dose, mean±S.E.M.
[4] = non-goggled chicks, contralateral vehicle-treated eyes
[5] = non-goggled chicks, drug-treated eyes
[6] = non-goggled eyes, drug-treated vs contralateral vehicle-treated eyes, result in words
[7] = non-goggled eyes, result in words
[8] = non-goggled eyes, drug-treated vs contralateral vehicle-treated eyes, result in words, listed as muscimol, hydrobromide

SMILES	effect on axial dimensions (axial length, vitreous chamber depth; ultrasound or calipers) of goggled eyes [1]	effect on myopic refraction of goggled eyes [1]	Equatorial diameter (calipers) (non-goggled eyes; non-goggled eyes)	axial length calipers (non-goggled eyes; non-goggled eyes)	axial length ultrasound (non-goggled eyes; non-goggled eyes)	vitreous chamber depth (ultrasound) (non-goggled eyes; non-goggled eyes)	effect on axial growth / axial length and vitreous chamber depth of non-goggled eyes (non-goggled eyes; [6])	effect on equatorial diameter of non-goggled eyes (non-goggled eyes; [6])	effect on refraction of non-goggled eyes (non-goggled eyes; [6])	effect on equatorial diameter / equatorial expansion of goggled eyes (calipers) [1]	overall effect on form-deprivation myopia (refraction and size measurements) of goggled eyes [1]	refraction (non-goggled eyes; non-goggled eyes)	also measured
NCC(O)(CS(=O)(=O)O)c1ccc(Cl)cc1 (centres unmarked) [2OH-saclofen, 2-hydroxysaclofen]	none of the tendencies of either drug to reduce ocular dimensions by ultrasound or calipers reached statistical significance	reduced the myopic refractions	–	–	–	–	–	–	–	–	–	–	–
NCCCP(=O)(O)CC1CCCCC1 [CGP46381, (3-aminopropyl)(cyclo-hexylmethyl)phosphinic acid]	inhibited the myopic refractive shift, the axial and vitreous chamber elongation	inhibited the myopic refractive shift	n.s. (n.s., P ≧ 0.05 by ANOVA)	n.s. (n.s., P ≧ 0.05 by ANOVA)	n.s. (n.s., P ≧ 0.05 by ANOVA)	100 µg	slightly enhanced vitreous chamber length	did not exert statistically identifiable changes	did not exert statistically identifiable changes	inhibited the myopic refractive shift, the axial and vitreous chamber elongation, and the equatorial expansion	potent anti-myopia effects; also recorded: inhibiting myopia and limiting axial vitreous chamber and equatorial expansion	–	lens thickness of contralateral vehicle-treated eyes (non-goggled eyes; [2]): 2.26±0.03 mm; lens thickness of drug-treated eyes (non-goggled eyes; [3]): 2.27±0.04 mm; lens thicker in vehicle-treated eyes at 10 μg than at the 100 μg dose (non-goggled eyes; [4]): 0.06 mm; lens thicker in drug-treated eyes at 10 μg than at the 100 μg dose (non-goggled eyes; [5]): 0.07 mm; effect on lens thickness / anterior chamber depth, drug-treated vs vehicle-treated eyes (non-goggled eyes; [7]): no influence on lens thickness
NC[C@H](CC(=O)O)c1ccc(Cl)cc1 [Baclofen, R(+)-baclofen]	neither the ultrasound nor the caliper measurements revealed statistically significant growth inhibition	partially reduced the myopic refractive error	n.s. (n.s., P ≧ 0.05 by ANOVA)	* (P < 0.05 by ANOVA for drug-treated vs. contralateral eyes, but no specific pair-wise comparison identified by the Tukey test.)	n.s. (n.s., P ≧ 0.05 by ANOVA)	100 µg	modest deepening of the vitreous chamber	–	None of the other effects of baclofen on the non-goggled eyes, including refractions (data not shown), reached statistical significance	–	weak anti-myopia effect	n.s. (n.s., P ≧ 0.05 by ANOVA)	–
NC/C=C/C(=O)O [TACA, Trans-4-aminocrotonic acid]	–	–	–	–	–	–	–	–	–	–	no statistically significant effects	–	overall effect on refraction and ocular size / eye growth of non-goggled eyes (non-goggled eyes; [6]): influenced neither refraction nor ocular size measurements
CP(=O)(O)C1=CCNCC1 [TPMPA, (1,2,5,6-tetraliydro-pyridine-4-yl) methyiphosphinic acid]	blocked the axial and vitreous chamber elongation as measured by ultrasound; also recorded: effects on axial growth as measured by calipers, did not reach statistical significance; also recorded: significantly reduces the axial length of the eye and vitreous chamber depth	reduced the myopic refraction; also recorded: largely eliminates the myopic refractive shift	–	200 & μg and 100 μg	10 µg	* (P < 0.05 by ANOVA for drug-treated vs. contralateral eyes, but no specific pair-wise comparison identified by the Tukey test.)	stimulated both axial growth and vitreous chamber length; also recorded: stimulates axial elongation and vitreous chamber depth	reduced the equatorial diameter; also recorded: equatorial dimension actually diminished	slight myopic refractive shift; also recorded: without altering refraction	blocked the axial and vitreous chamber elongation as measured by ultrasound, and the equatorial expansion	potent anti-myopia effects	§ (P < 0.05 by ANOVA for overall dose effect, but no significant effect identified for drug-treated vs. contralateral eyes; no specific pairwise comparison identified by the Tukey test.)	–
NC/C=C\C(=O)O [CACA, cis-4-aminocrotomc acid]	not accompanied by any statistically identifiable changes in axial measurements	modest, perhaps biphasic effect	n.s. (n.s., P ≧ 0.05 by ANOVA)	n.s. (n.s., P ≧ 0.05 by ANOVA)	50 µg	n.s. (n.s., P ≧ 0.05 by ANOVA)	slightly stimulated axial length by ultrasound; also recorded: stimulate axial growth to a modest degree	without altering refraction or affecting equatorial diameter	not affecting refraction; also recorded: without altering refraction	no change in the equatorial dimension	none of the size measurements were altered	n.s. (n.s., P ≧ 0.05 by ANOVA)	anterior chamber depth of contralateral vehicle-treated eyes (non-goggled eyes; [2]): 1.31±0.03 mm; lens thickness of contralateral vehicle-treated eyes (non-goggled eyes; [2]): 2.22±0.02 mm; anterior chamber depth of drug-treated eyes (non-goggled eyes; [3]): 1.32±0.03 mm; lens thickness of drug-treated eyes (non-goggled eyes; [3]): 2.22±0.02 mm; lens thinner in contralateral vehicle-treated eyes at 10 μg than in the other two cohorts (100 or 200 μg) (non-goggled eyes; [4]): 0.10 mm; anterior chambers deeper at the 10 μg dose than at the higher doses (non-goggled eyes; non-goggled chicks, drug- and vehicle-treated eyes, vs 50, 100 or 200 μg): 0.08-0.14 mm; lens thinner in drug-treated eyes at 10 μg than at the 100 or 200 μg doses (non-goggled eyes; [5]): 0.16 mm; effect on lens thickness / anterior chamber depth, drug-treated vs vehicle-treated eyes (non-goggled eyes; [7]): did not affect lens thickness or anterior chamber depth
CCOC(OCC)P(=O)(O)CCCN [CGP35348, (3-aminopropyl)(diethoxy-methyl)phosphinic acid]	–	–	–	–	–	–	–	–	–	–	no statistical effect	–	–
CC1(C)CO[C@@H](CC(=O)O)CN1 [SCH50911, (+)-(2S)-5,5-dimethyl-2-morpholineacetic acid]	none of the tendencies of either drug to reduce ocular dimensions by ultrasound or calipers reached statistical significance	reduced the myopic refractions	–	–	–	–	–	–	–	–	–	–	–
NCc1cc(=O)[nH]o1 [Muscimol, Muscimol hydrobromide]	–	–	–	–	–	–	–	–	–	–	did not affect refraction, ultrasound or caliper measurements	–	refraction of contralateral vehicle-treated eyes (non-goggled eyes; non-goggled chicks, 5 μg daily dose to the other eye, mean±S.E.M.): 0.86±0.58 D; refraction of contralateral vehicle-treated eyes (non-goggled eyes; non-goggled chicks, 10 μg daily dose to the other eye, mean±S.E.M.): +0.11±0.82 D; refraction of contralateral vehicle-treated eyes (non-goggled eyes; non-goggled chicks, 50 μg daily dose to the other eye, mean±S.E.M.): 1.78±1.21 D; refraction of contralateral vehicle-treated eyes (non-goggled eyes; non-goggled chicks, 200 μg daily dose to the other eye, mean±S.E.M.): 3.82±0.83 D; dose of maximum effect on refraction (shift to myopia) of non-goggled eyes (non-goggled eyes; non-goggled eyes, daily intravitreal injection): 50 µg; effect on refraction of non-goggled eyes (non-goggled eyes; non-goggled eyes, drug-treated vs contralateral vehicle-treated eyes, result in words, hydrobromide): induces a statistically significant myopic shift in refraction; effect on axial growth / axial length and vitreous chamber depth of non-goggled eyes (non-goggled eyes; [8]): stimulated axial growth as measured by either ultrasound or calipers, and deepened the vitreous chamber; also recorded: increasing not only axial and vitreous chamber lengths; effect on equatorial diameter of non-goggled eyes (non-goggled eyes; [8]): increased the equatorial diameter; also recorded: expanding the equatorial diameter; effect on refraction of non-goggled eyes (non-goggled eyes; [8]): shifted the refraction to myopia; also recorded: statistically significant shift in refraction
